Measurements as given in publication PMC4701221, “Novel Promising Estrogenic Receptor Modulators: Cytotoxic and Estrogenic Activity of Benzanilides and Dithiobenzanilides” (PLoS ONE, 2016).
Entries after “also recorded” stand apart in the source; their conditions may differ.

Experiments:
MDA-MB-231 cells [1] = assay: Sulphorodamine B assay, MDA-MB-231; type: cell-based, human; conditions: 72 h, Fig 2
Procedure: In addition to the MTT assay, cell viability was measured by the Sulphorodamine B assay according to Vichai and Kirtikara. The MCF-7 and MDA-MB-23 cells were seeded and treated as for the MTT assay. After incubation the medium was removed and the cells were fixed with cold (4°C) trichloroacetic acid (final concentration 10%) for 1h. Than plates were washed 4 times with water and stained for 30 min, following by staining with sulforhodamine B (SRB) 0.4% in 1% acetic acid solution at room temperature for 20 min. After staining, the SRB solution was removed and the plates washed 5 times with 1% acetic acid dried. Bound SRB was solubilized with 200 μl 10 mM unbuffered Tris-base solution and plates were shaked for 10 min. The absorbance at 510 nm was measured using a plate reader (Biotek Instruments, Elx-800).

ERα W383S = target: T1, ERα W383S (Homo sapiens, UniProt P03372, W383S); assay: Estrogen Receptor luciferase assay in HEK293 cells transfected with ERα W383S; type: cell-based; conditions: HEK293, Fig 6A
T1 construct: expressed in transfected cells; host or cells: HEK293
T1 sequence (P03372 1-595 W383S): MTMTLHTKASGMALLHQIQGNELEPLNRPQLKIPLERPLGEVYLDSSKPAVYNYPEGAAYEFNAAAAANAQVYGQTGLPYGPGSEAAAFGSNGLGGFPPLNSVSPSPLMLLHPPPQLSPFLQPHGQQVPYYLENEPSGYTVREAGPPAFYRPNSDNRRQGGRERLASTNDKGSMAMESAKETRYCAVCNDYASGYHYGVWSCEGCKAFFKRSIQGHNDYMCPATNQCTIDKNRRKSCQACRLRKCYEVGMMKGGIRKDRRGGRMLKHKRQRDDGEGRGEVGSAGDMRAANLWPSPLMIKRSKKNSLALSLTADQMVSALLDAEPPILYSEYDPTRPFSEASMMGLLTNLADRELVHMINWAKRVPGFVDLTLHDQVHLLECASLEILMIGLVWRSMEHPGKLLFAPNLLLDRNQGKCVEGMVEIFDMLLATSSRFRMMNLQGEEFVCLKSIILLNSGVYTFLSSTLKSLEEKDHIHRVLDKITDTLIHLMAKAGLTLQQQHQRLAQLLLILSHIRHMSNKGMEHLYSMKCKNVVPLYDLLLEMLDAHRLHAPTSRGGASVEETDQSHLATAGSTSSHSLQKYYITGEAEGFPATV
Text: To obtain a eukaryotic vector expressing only the ER-α nuclear receptor, a construct was designed by cloning a KpnI-BamHI fragment from plasmid pEGFP-C1-ERα containing the ERα coding sequence that includes a stop signal into the pEGFP-N3 plasmid (Clontech Laboratories, Palo Alto, CA) under the control of the CMV promoter. […] For mock transfections, pEGFP-N3 plasmid was digested with BglII and NotI and religated after polishing DNA ends to remove GFP coding sequence. Plasmid sequence was confirmed by automatic sequencing. Prior to transfection, cells were seeded in 48 well plates at density of 1.5 x 10^4 cells/well and incubated for 24 h to reach a cell confluence of 80–90%. […] MCF-7 cells, which endogenously express ERα receptor, were transfected with p3xERRE/ERE-luciferase plus the pRLTK Renilla luciferase control plasmid (95:5). Firefly and Renilla luciferase activities were measured using the Dual Luciferase Assay System (Promega, Madison, WI, USA), following a standard protocol using a Sirius L luminometer (Berthold Technologies, Bad Wildbad, Germany). Data were expressed as relative changes in luciferase activity and normalized to 100%.
Plasmids for the expression of the ERα W383A and ER-α W383S mutated receptors were constructed by the quick change site directed mutagenesis method using plasmid pEGFP-N-ERα as template.

MCF-7 cells = assay: MTT assay, MCF-7; type: cell-based, human
Procedure: The cell lines used in the cytotoxicity study, besides MCF-12A, were purchased from European Collection of Cell Culture (ECACC, Salisbury, UK): HEK293 (human embryonic kidney, ATTC no. CRL-1573), A549 (Human lung carcinoma, ECACC no. 86012804), CCD39Lu (Human lung fibroblasts, ECACC no. 90110512), MCF-7 (Human breast adenocarcinoma, ECACC no. 86012803) and MDA-MB-231 (Human breast adenocarcinoma ECACC no. 92020424). Cell lines were cultured in DMEM medium without phenol red and supplemented with 10% (v/v) FBS, 1% penicillin-streptomycin and 1% L-glutamine. MCF-12A (ATTC no. […]) was purchased from American Type Culture Collection (ATCC Manassas, VA 20110 USA). MCF-12A cells were kept in 1:1 mixture of Dulbecco’s modified Eagle’s medium and Ham’s F12 medium, 20 ng/ml human epidermal growth factor, 100 ng/ml cholera toxin, 0.01 mg/ml bovine insulin, 500 ng/ml hydrocortisone and 5% horse serum. All cell lines were cultured at 37°C, in a humidified atmosphere containing 5% CO2.
Compounds were dissolved in DMSO to the final concentration of […]. A549, CCD39Lu, MCF-7, MDA-MB-231 and MCF-12A cells were seeded in 96 wells plates at density 2x10^4 cells/well and incubated overnight as described above. Subsequently, cells were treated with tested compounds at concentrations: 100 μM; 50 μM; 25μM; 12.5μM; 6 μM; 3 μM; 1.5 μM. […] Cells were incubated 72 h at 37°C in a humidified atmosphere containing 5% CO2 in the cell culture media appropriate for each cell line. Then, the medium was aspirated and 170 μl MTT solution (5mg/ml) was added to each well. Plates were incubated for 2 hours at 37°C, and then plates were centrifuged at 1200 rpm for 3 minutes. The formazan crystals were dissolved in 200 μl DMSO and plates were further agitated on a plate shaker at 300–500 rpm for 10 minutes. Absorbance at 570 nm (with reference wavelenght 650 nm) was measured using a plate reader (Biotek Instruments, Elx-800). Cell viability was calculated as a percentage relative to the control.

MDA-MB-231 cells [2] = assay: LDH release assay, MDA-MB-231; type: cell-based, human; conditions: 72 h, Fig 2
Procedure: Cytotoxicity was evaluated by measuring the cell membrane permeability, using a LDH assay kit purchased from Cayman Chemical (Ann Arbor USA). The LDH assay was performed for MCF-7 and MDA-MB-231 cells (seeded at 2×10^4 density). As a positive control cell permeabilization with 1%Triton X-100 was used. The assay was performed 72h after start the incubation. Briefly, the plates were centrifuged at 400 ×g for 5 minutes, and 100 μL of supernatant were transferred from each well to the new 96-well plate and analyzed according to the manufacturer’s protocol. 100 μL of reaction mixture, containing lactic acid, NAD^+, tetrazolium salt and diaphorase, was added to each well. Plates were incubated on an orbital shaker for 30 minutes at room temperature and the absorbance at 490 nm was measured with a plate reader (Biotek Instruments, Elx-800). Results were expressed as a percentage of the total value of the positive control.

## Fc1ccc(NC(=S)c2ccc(NC(=S)c3ccc(F)cc3)cc2)cc1 [Compound 18]
MDA-MB-231 cells [1]
  Effect in SRB assay, MDA-MB-231: non-significant effects
ERα W383S
  Activation of ER dependent transcription, ERα W383S vs wild type: less active
MCF-7 cells; 72 h
  Activity in MTT assay (in words), MCF-7: significant activity; also recorded: strong effect
MCF-7 cells; Homo sapiens, MCF7, 72 h, estrogen dependent breast adenocarcinoma, read-out: Cytotoxic activity IC50, MCF-7
  IC50: 5.07 µM
MDA-MB-231 cells [2]
  LDH release, MDA-MB-231: non-significant effects
